Measurements as given in US7589193B2, “C-aryl glucoside SGLT2 inhibitors and method” (Bristol-Myers Squibb Company, priority 2004, dated 2009).
Like-named read-outs stand apart in the source and are kept apart here.

What was measured:
STZ diabetic rats = assay: Determination of blood glucose effect in streptozotocin-treated diabetic rats (Study A); format: in vivo, rat (male Sprague Dawley); settings: oral 0.1 mg/kg
Protocol: I. Protocol for Study A: Determination of Blood Glucose Effect in Streptozotocin-Treated Diabetic Rats
The following analysis was utilized to reasonably predict the impact on plasma glucose for the compounds analyzed in the matrix above.
Male Sprague Dawley rats (Charles River) weighing 250-275 g were made diabetic by a single intraperitoneal injection of streptozotocin (Sigma) at 65 mg/kg, prepared in fresh cold (4° C.) 0.01 M citrate buffer. Four days later, animals were bled in the fed state. Whole blood was collected via the tail tip and analyzed for glucose by the glucose oxidation method with a Glucometer Elite (Bayer). Mean blood glucose levels ranged from 450-550 mg/dl.
On the day of the experiment, the compound was dissolved in the vehicle comprised of 5% m-Pyrol, 20% PEG 400 and 20 mM Sodium Diphosphate. Rats were weighed, randomized into 4 groups with 6 rats in each group, and dosed orally with the vehicle or 0.1 mg/kg of the compound. The total volume for oral gavage was 1 ml/kg body weight. After dosing, the food was removed from the cages and the rats had access to water ad lib during the experiment. Blood samples were obtained from the tail tip at 0, 30, 60, 120, 180, 240 and 300 minutes following drug administration. Blood glucose was analyzed by the glucose oxidation method with a Glucometer Elite (Bayer).
A. Statistical Data Analysis
The calculation of mean blood glucose values and percent changes vs. vehicle at each time point were performed using Microsoft Excel. Statistical analyses (T tests, or ANOVA followed by Fisher's test) comparing drug-treated groups vs. vehicle controls) were performed using Microsoft Excel or the statistical program StatView. A p value of less that 0.05 was considered to be statistically significant.

[1] = Stability in presence of commonly used solid excipients under accelerated aging conditions (Study B); format: physicochemical; settings: for Stability in a prototypical formulation: drug-excipient blends, accelerated aging conditions, 1 and 3 weeks, HPLC analysis
Source text: II. Protocol for Study B: Stability Determination of Oxidatively Labile Therapeutic Agent in Presence of Commonly Used Solid Excipients, Under Accelerated Aging Conditions
The following procedure was utilized to access the chemical stability of the compound 3 in the presence of commonly used excipients and typical antioxidants.
The drug substance was triturated in a mortar pestle with the respective antioxidant, and then mixed in the dry state with other excipients listed in the following table. Sodium metabisulfite and butylated hydroxyl anisole (BHA) were used as antioxidants in this study. BHA was used at two levels, 0.01% w/w and 0.5% w/w, and sodium metabisulfite was used at 0.01% w/w. For samples stored at 40° C./[…] and HIL/uv, oxygen gas was purged into the vials and they were tightly capped. The drug-excipient blends (A-D) were placed under the different accelerated aging conditions listed within the second table for 1 and 3 weeks prior to HPLC analysis.

[2] = system: Chinese hamster ovary (CHO) cells; assay: Cytogenetics study in Chinese hamster ovary cells, in vitro clastogenicity / chromosome aberration (Study C); settings: 3 hr with/without S9, 20 hr without S9
Source text: (§1) The following protocol was utilized to predict the in vitro clastogenicity activity of compounds of therapeutic interest.
(§2) Clastogenicity was predicted by determining the potential of compounds of interest to induce structural chromosome damage in Chinese hamster ovary (CHO) cells.
(§3) The vehicle control is dimethyl sulfoxide (DMSO). The positive controls were Mitomycin C for the 3-hr and 20-hr exposure without S9 activation and cyclophosphamide for the 3-hr exposure with S9 rat-liver enzymes. Both Mitomycin C and cyclophosphamide were diluted with sterile water.
(§4) Two stock solutions in DMSO of the compound of interest were prepared—one being a high concentration, the other low. Aliquots of the vehicle control, low and high dosing solutions were collected following treatment of the CHO cells and subsequently analyzed to determine the concentration of the compound of interest. […] Once the upper limit of solubility of the compound of interest was determined in DMSO, that DMSO solution is added to culture medium to determine effects on pH or osmmolality. […]
(§5) The DMSO stock solution of the compound of interest was 100× concentration of the highest test-article concentration to be used in the full assay. […] The cytotoxicity dose response observed in the range finding study determined the serial dilution factor for the five lower doses. […]

[3] = system: Chinese hamster ovary (CHO) cells
Source text: as §1, §2, §3, §4, §5

Stability in a prototypical formulation [1] | Chemical stability in the presence of excipients commonly used in solid dosage forms [1] | Compound | % Decrease of plasma glucose in STZ diabetic rats at 5 hr after an oral dose of 0.1 mg/kg vs. vehicle treated controls (STZ diabetic rats) [%] | In vitro clastogenic activity [2] | In vitro clastogenic activity [3]
Yes | chemically stable | CCc1ccc(Cc2cc([C@@H]3O[C@H](CO)[C@@H](O)[C@H](O)[C@H]3O)ccc2Cl)cc1 [Compound 1] | 62 | – | –
No | – | CSc1ccc(Cc2cc([C@@H]3O[C@H](CO)[C@@H](O)[C@H](O)[C@H]3O)ccc2C)cc1 [Compound 3] | 59 | – | –
Yes | chemically stable | CCc1ccc(Cc2cccc([C@@H]3O[C@H](CO)[C@@H](O)[C@H](O)[C@H]3O)c2)cc1 [Compound 5] | 34 | – | Yes

Compound | Stability in a prototypical formulation [1] | Chemical stability in the presence of excipients commonly used in solid dosage forms [1] | % Decrease of plasma glucose in STZ diabetic rats at 5 hr after an oral dose of 0.1 mg/kg vs. vehicle treated controls (STZ diabetic rats) [%] | In vitro clastogenic activity [2] | In vitro clastogenic activity [3]
CCOc1ccc(Cc2cc([C@@H]3O[C@H](CO)[C@@H](O)[C@H](O)[C@H]3O)ccc2Cl)cc1 [Compound 4] | Yes | chemically stable | 60 | Yes | –
